# Patent US9550782B2, “Compounds and methods for treating diabetes” (Medivation Technologies, Inc., priority 2011, dated 2017)
# Values joined by “and” are separate entries in the source; they are usually repeats but may differ in a detail not shown here. Equal values may be shown once.
# Target: T1, human recombinant adrenergic α2A receptor (Homo sapiens, UniProt P08913)
# T1 construct: expressed in transfected cells; host or cells: insect Sf9 cells
# T1 sequence (P08913 1-465): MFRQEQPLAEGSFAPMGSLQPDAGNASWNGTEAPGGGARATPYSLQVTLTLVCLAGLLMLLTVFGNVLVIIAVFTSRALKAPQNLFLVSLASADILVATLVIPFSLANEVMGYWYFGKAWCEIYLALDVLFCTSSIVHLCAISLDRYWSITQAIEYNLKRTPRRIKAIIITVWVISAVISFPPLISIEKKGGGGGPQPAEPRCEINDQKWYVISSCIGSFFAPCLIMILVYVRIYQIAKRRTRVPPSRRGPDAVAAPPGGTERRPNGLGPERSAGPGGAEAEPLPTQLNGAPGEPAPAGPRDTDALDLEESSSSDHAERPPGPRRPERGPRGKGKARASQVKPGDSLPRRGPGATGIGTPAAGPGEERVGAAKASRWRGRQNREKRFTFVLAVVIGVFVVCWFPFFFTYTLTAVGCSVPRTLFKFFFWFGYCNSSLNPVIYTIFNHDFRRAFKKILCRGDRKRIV
# Assay: Radioligand binding, adrenergic α2A ([3H]MK-912)
# Conditions: compound at 0.03 μM; [3H]MK-912; repeat datapoints each shown
# Procedure: To evaluate in radioligand binding assays the activity of compounds of the invention, human recombinant adrenergic α2A receptor expressed in insect Sf9 cells (Uhlen, S. et al, J. Pharmacol. Exp. Ther. 271:1558, 1994) in a modified Tris-HCl buffer (50 mM Tris-HCl, pH 7.4, 12.5 mM MgCl2, 2 mM EDTA) was used. Compounds of invention were incubated with 1 nM [^3H]MK-912 for 60 min at 25° C. MK912 is (2S-trans)-1,3,4,5′,6,6′,7,12b-octahydro-1′,3′-dimethyl-spiro[2H-benzofuro[2,3-a]quinolizine-2,4′(1′H)-pyrimidin]-2′(3′H)-one hydrochloride. Non-specific binding was estimated in the presence of 10 μM WB-4101 (2-(2,6-Dimethoxyphenoxyethyl)aminomethyl-1,4-benzodioxane hydrochloride). Receptor proteins were filtered and washed, the filters were then counted to determine [^3H]MK-912 specifically bound. […] Compounds of the invention were tested in this biochemical assay and percent inhibition of specific binding was determined. Biochemical assay results are presented as the percent inhibition of specific binding in Table B1.
row,"Percentage inhibition of ligand binding, Adrenergic α2A (0.03 μM)",Structure (SMILES)
1,5%,"CN1CCc2c(c3cc(Cl)ccc3n2CC(O)c2ccncc2)C1 (single isomer, unassigned) [4a]"
2,16%,"Cc1ccc2c(c1)c1c(n2CC(C)(O)c2ccc(C)nc2)CCN(C)C1 (single isomer, unassigned) [29a]"

# Same assay, conditions: compound at 0.1 μM; [3H]MK-912; repeat datapoints each shown; 0.1 µM
row,Structure (SMILES),"Percentage inhibition of ligand binding, Adrenergic α2A (0.1 μM)"
1,"CN1CCc2c(c3cc(Cl)ccc3n2CC(O)c2ccncc2)C1 (single isomer, unassigned) [4a]",19% and 24%
2,"CN1CCc2c(c3cc(Cl)ccc3n2CC(O)c2ccncc2)C1 (single isomer, unassigned) [4b]",7%
3,"CN1CCc2c(c3cc(Cl)ccc3n2CC(O)c2cccnc2)C1 (single isomer, unassigned) [7a]",1%
4,"CN1CCc2c(c3cc(Cl)ccc3n2CC(O)c2cccnc2)C1 (single isomer, unassigned) [7b]",25%
5,"Cc1ccc2c(c1)c1c(n2CC(C)(O)c2ccc(C)nc2)CCN(C)C1 (single isomer, unassigned) [29a]",35% and 39%

# The remaining lines, values ahead:
row,"Percentage inhibition of ligand binding, Adrenergic α2A (0.1 μM)",Structure (SMILES)
1,11%,Cc1ccc2c(c1)c1c(n2CC(O)c2ccncc2)CC2CCCCN2C1 (racemic) [75a]
2,5%,Cc1ccc2c(c1)c1c(n2CC(O)c2ccncc2)CC2CCCCN2C1 (racemic) [75b]
3,−2%,Cc1ccc2c(c1)c1c(n2CC(O)c2ccncc2)CC2CCCCN2C1 (racemic) [75c]
4,49%,Cc1ccc2c(c1)c1c(n2CC(O)c2ccncc2)CC2CCCCN2C1 (racemic) [75d]

# Target: T2, human recombinant adrenergic α2B receptor (Homo sapiens, UniProt P18089)
# T2 construct: expressed in transfected cells; host or cells: CHO-K1
# T2 sequence (P18089 1-450): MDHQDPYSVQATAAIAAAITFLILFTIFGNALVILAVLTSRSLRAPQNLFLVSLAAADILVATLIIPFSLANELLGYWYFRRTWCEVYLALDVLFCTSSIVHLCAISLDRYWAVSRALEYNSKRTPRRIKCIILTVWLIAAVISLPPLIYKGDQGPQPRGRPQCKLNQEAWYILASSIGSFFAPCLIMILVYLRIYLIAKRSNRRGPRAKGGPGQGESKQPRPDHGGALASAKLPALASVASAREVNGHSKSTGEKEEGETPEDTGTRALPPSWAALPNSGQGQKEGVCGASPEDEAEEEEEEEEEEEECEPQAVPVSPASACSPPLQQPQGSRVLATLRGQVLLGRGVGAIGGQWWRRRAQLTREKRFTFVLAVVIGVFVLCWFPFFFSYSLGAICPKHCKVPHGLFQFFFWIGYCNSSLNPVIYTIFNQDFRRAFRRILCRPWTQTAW
# Assay: Radioligand binding, adrenergic α2B ([3H]Rauwolscine)
# Conditions: compound at 0.03 μM, repeat datapoints each shown, 0.03 µM
# Procedure: To evaluate in radioligand binding assays the activity of compounds of the invention, human recombinant adrenergic α2B receptor expressed in Chinese hamster ovary (CHO) K1 cells (Uhlen, S. et al, Eur. J. Pharmacol. 343(1):93, 1998) in a modified Tris-HCl buffer (50 mM Tris-HCl, pH 7.4, 12.5 mM MgCl2, 1 mM EDTA, 0.2% BSA) was used. Compounds of the invention were incubated with 2.5 nM [3H]Rauwolscine for 60 min at 25° C. Non-specific binding was estimated in the presence of 10 μM Prazosin. Receptor proteins were filtered and washed, the filters were then counted to determine [3H]Rauwolscine specifically bound. […] Compounds of the invention were tested in this biochemical assay and percent inhibition of specific binding was determined. Biochemical assay results are presented as the percent inhibition of specific binding in Table B1.
row,Structure (SMILES),"Percentage inhibition of ligand binding, Adrenergic α2B (0.03 μM)"
1,"CN1CCc2c(c3cc(Cl)ccc3n2CC(O)c2ccncc2)C1 (single isomer, unassigned) [4a]",99% and 103%
2,"CN1CCc2c(c3cc(Cl)ccc3n2CC(O)c2ccncc2)C1 (single isomer, unassigned) [4b]",46%
3,"CN1CCc2c(c3cc(Cl)ccc3n2CC(O)c2cccnc2)C1 (single isomer, unassigned) [7a]",59%
4,"CN1CCc2c(c3cc(Cl)ccc3n2CC(O)c2cccnc2)C1 (single isomer, unassigned) [7b]",74%
5,"Cc1ccc2c(c1)c1c(n2CC(C)(O)c2ccc(C)nc2)CCN(C)C1 (single isomer, unassigned) [29a]",98% and 100%

# The next lines start with the values.
row,"Percentage inhibition of ligand binding, Adrenergic α2B (0.03 μM)",Structure (SMILES)
1,77%,Cc1ccc2c(c1)c1c(n2CC(O)c2ccncc2)CC2CCCCN2C1 (racemic) [75a]
2,43%,Cc1ccc2c(c1)c1c(n2CC(O)c2ccncc2)CC2CCCCN2C1 (racemic) [75b]
3,11%,Cc1ccc2c(c1)c1c(n2CC(O)c2ccncc2)CC2CCCCN2C1 (racemic) [75c]
4,102%,Cc1ccc2c(c1)c1c(n2CC(O)c2ccncc2)CC2CCCCN2C1 (racemic) [75d]

# Same assay, conditions: compound at 0.1 μM, repeat datapoints each shown, 0.1 µM
row,"Percentage inhibition of ligand binding, Adrenergic α2B (0.1 μM)",Structure (SMILES)
1,104%,"CN1CCc2c(c3cc(Cl)ccc3n2CC(O)c2ccncc2)C1 (single isomer, unassigned) [4a]"

# Target: T3, rat adrenergic α1B receptor (Rattus norvegicus, UniProt P15823)
# T3 construct: rat adrenergic α1B receptor obtained from Wistar Rat liver; from tissue; host or cells: Wistar rat liver
# T3 sequence (P15823 1-515): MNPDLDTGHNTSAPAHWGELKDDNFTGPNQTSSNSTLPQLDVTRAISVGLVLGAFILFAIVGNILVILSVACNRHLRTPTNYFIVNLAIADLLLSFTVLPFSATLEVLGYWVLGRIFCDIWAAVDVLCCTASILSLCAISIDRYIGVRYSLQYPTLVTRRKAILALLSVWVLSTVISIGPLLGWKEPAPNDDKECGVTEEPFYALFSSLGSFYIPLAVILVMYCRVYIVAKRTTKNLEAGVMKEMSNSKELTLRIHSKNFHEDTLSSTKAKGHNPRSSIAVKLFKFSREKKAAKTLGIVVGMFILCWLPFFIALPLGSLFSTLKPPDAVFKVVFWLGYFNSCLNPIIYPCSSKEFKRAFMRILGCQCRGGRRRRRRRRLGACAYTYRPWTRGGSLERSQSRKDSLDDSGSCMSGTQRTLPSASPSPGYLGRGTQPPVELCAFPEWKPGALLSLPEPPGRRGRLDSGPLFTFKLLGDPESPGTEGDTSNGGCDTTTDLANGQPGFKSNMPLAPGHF
# Assay: Radioligand binding, adrenergic α1B ([3H]Prazosin)
# Set-up: species or system Wistar Rat
# Conditions: compound at 0.03 μM, repeat datapoints each shown
# Procedure: To evaluate in radioligand binding assays the activity of compounds of the invention, rat adrenergic α1B receptor obtained from Wistar Rat liver (Garcia-S'ainz, J. et al, Biochem. Biophys. Res. Commun. 186:760, 1992; Michel, A. et al, Br. J. Pharmacol. 98:883, 1989) in a modified Tris-HCl buffer (50 mM Tris-HCl buffer, pH 7.4, 0.5 mM EDTA) was used. Compounds of the invention were incubated with 0.25 nM [^3H]Prazosin for 60 min at 25° C. Non-specific binding was estimated in the presence of 10 μM phentolamine. Receptor proteins were filtered and washed, the filters were then counted to determine [^3H]Prazosin specifically bound. […] Compounds of the invention were tested in this biochemical assay and percent inhibition of specific binding was determined. Biochemical assay results are presented as the percent inhibition of specific binding in Table B1.
row,"Percentage inhibition of ligand binding, Adrenergic α1B (0.03 μM)",Structure (SMILES)
1,25%,"CN1CCc2c(c3cc(Cl)ccc3n2CC(O)c2ccncc2)C1 (single isomer, unassigned) [4a]"
2,19%,"Cc1ccc2c(c1)c1c(n2CC(C)(O)c2ccc(C)nc2)CCN(C)C1 (single isomer, unassigned) [29a]"

# Same assay, conditions: compound at 0.1 μM, repeat datapoints each shown, 0.1 µM
row,Structure (SMILES),"Percentage inhibition of ligand binding, Adrenergic α1B (0.1 μM)"
1,"CN1CCc2c(c3cc(Cl)ccc3n2CC(O)c2ccncc2)C1 (single isomer, unassigned) [4a]",52% and 57%
2,"CN1CCc2c(c3cc(Cl)ccc3n2CC(O)c2ccncc2)C1 (single isomer, unassigned) [4b]",58%
3,"CN1CCc2c(c3cc(Cl)ccc3n2CC(O)c2cccnc2)C1 (single isomer, unassigned) [7a]",28%
4,"CN1CCc2c(c3cc(Cl)ccc3n2CC(O)c2cccnc2)C1 (single isomer, unassigned) [7b]",37%
5,"Cc1ccc2c(c1)c1c(n2CC(C)(O)c2ccc(C)nc2)CCN(C)C1 (single isomer, unassigned) [29a]",32% and 38%

# Next, values leading:
row,"Percentage inhibition of ligand binding, Adrenergic α1B (0.1 μM)",Structure (SMILES)
1,61%,Cc1ccc2c(c1)c1c(n2CC(O)c2ccncc2)CC2CCCCN2C1 (racemic) [75a]
2,16%,Cc1ccc2c(c1)c1c(n2CC(O)c2ccncc2)CC2CCCCN2C1 (racemic) [75b]
3,59%,Cc1ccc2c(c1)c1c(n2CC(O)c2ccncc2)CC2CCCCN2C1 (racemic) [75c]
4,26%,Cc1ccc2c(c1)c1c(n2CC(O)c2ccncc2)CC2CCCCN2C1 (racemic) [75d]
